System: human embryonic stem cell derived neural stem cells (NSCs)
Assay: Neural stem cell proliferation assay (neurogenesis assay)
Type: cell-based
Conditions: Homo sapiens, Neural stem cell, 96 h; Table 1, novel compounds; concentration at which 150% activity of control (100%) is reached; ATP levels (CellTiterGlo) after 4 days incubation
Method: Neural Stem Cell Proliferation Assay
Neurogenic properties of small molecules are determined based on the proliferation of human embryonic stem cell derived neural stem cells (NSCs) which were derived via a dual smad inhibition as previously described (Chambers, S. M., et al., Highly efficient neural conversion of human ES and iPS cells by dual inhibition of SMAD signaling, Nature biotechnology, 2009. 27 (3): p. 275-80.)
Compounds respond is measured by the increase in cells based on ATP levels (Promega:CellTiterGlo®) after an incubation period of 4 days.
NSCs are thawed and expanded over 3 passages. On the 14th day, NSCs are seeded in Polyornithin/Laminin coated 384 well plates at a cell density of 21,000 cells/cm^2 in a media volume of 38 μl.
4 hours after cell seeding, compound solutions are added at a volume of 2 μl. Stock solutions of the compounds (water, 5% DMSO) are diluted to obtain a dose response (11 points, dilution factor is 2), ranging from 8 μM to 8 nM. Controls are run to consistently determine the neurogenic properties of the cells:
Negative (neutral) control is cell culture Media (final DMSO concentration: 0.25%).
Positive controls are: • 1. cell culture Media+100 ng/ml FGF2 (final DMSO concentration: 0.1%) • 2. cell culture Media+20 ng/ml EGF (final DMSO concentration: 0.1%) • 3. cell culture Media+100 ng/ml Wnt3a (final DMSO concentration: 0.1%)
After 4 days incubation at 37° C., 5% CO2, the amount of ATP per well is quantified. The ATP concentration is proportional to the cell number. ATP is quantified by using the Promega CellTiterGlo® kit. The CellTiterGlo® reagents contain a cell lysis buffer, a thermo stable luciferase (UltraGlo™ recombinant luciferase), magnesium and luciferin. Luciferin reacts with ATP producing oxyluciferin, AMP and light. The luminescence signal is proportional to the ATP content.
The value of negative (neutral) control is determined for each assay plate by taking the average of 16 negative control wells. The neurogenic compound response is calculated for each compound as (compound/Negative Control)*100.
The values of EC150 from the dose response curve are determined for each test compound. The EC150 is the compound concentration at which 150% activity of control (100%) is reached.

Compound	EC (150% of control) [µM]
CC(C)Oc1ccc(-c2cncc3ccc(C(N)=O)nc23)cc1 [Example 105, 8-(4-Isopropoxyphenyl)-1,6-naphthyridine-2-carboxamide]	0.01
COc1ccc(-c2cncc3ccc(C(N)=O)nc23)cn1 [Example 89, 8-(6-Methoxypyridin-3-yl)-1,6-naphthyridine-2-carboxamide]	0.09
O=C(NCc1ccncc1)c1ccc2cncc(-c3cccnc3)c2n1 [Example 31, 8-(Pyridin-3-yl)-N-(pyridin-4-ylmethyl)-1,6-naphthyridine-2-carboxamide]	0.54
COc1ccc(-c2cncc3ccc(C(=O)NCCCn4nc(C)cc4C)nc23)cc1 [Example 42, N-(3-(3,5-Dimethyl-1H-pyrazol-1-yl)propyl)-8-(4-methoxyphenyl)-1,6-naphthyridine-2-carboxamide]	0.25
COc1ccc(-c2cncc3ccc(C(=O)N(C)Cc4ccccc4)nc23)cc1 [Example 33, N-Benzyl-8-(4-methoxyphenyl)-N-methyl-1,6-naphthyridine-2-carboxamide]	0.22
Cc1nc(C)c(-c2cncc3ccc(C(N)=O)nc23)s1 [Example 102, 8-(2,4-Dimethylthiazol-5-yl)-1,6-naphthyridine-2-carboxamide]	0.14
CC(NC(=O)c1ccc2cncc(-c3ccc(F)cc3)c2n1)c1ccc(S(C)(=O)=O)cc1 (centres unmarked) [Example 107, 8-(4-Fluorophenyl)-N-(1-(4-(methylsulfonyl)phenyl)ethyl)-1,6-naphthyridine-2-carboxamide]	0.1
CC(NC(=O)c1ccc2cncc(-c3ccc(OCC(F)(F)F)cc3)c2n1)C(C)(C)O (centres unmarked) [Example 163, N-(3-Hydroxy-3-methylbutan-2-yl)-8-(4-(2,2,2-trifluoroethoxyl)phenyl)-1,6-naphthyridine-2-carboxamide]	0.07
NC(=O)c1ccc2cncc(-c3ccc(Cl)cc3Cl)c2n1 [Example 160, 8-(2,4-Dichlorophenyl)-1,6-naphthyridine-2-carboxamide]	0.1
CCCCCCC(=O)NCc1cccc(-c2cncc3ccc(C(N)=O)nc23)c1 [Example 151, 8-(3-(Heptanamidomethyl)phenyl)-1,6-naphthyridine-2-carboxamide]	0.03
NCc1ccc(-c2cncc3ccc(C(N)=O)nc23)cc1 [Example 156, 8-(4-(Aminomethyl)phenyl)-1,6-naphthyridine-2-carboxamide]	0.31
O=C(NCCC(F)(F)F)c1ccc2cncc(-c3ccc(Cl)cc3)c2n1 [Example 64, 8-(4-Chlorophenyl)-N-(3,3,3-trifluoropropyl)-1,6-naphthyridine-2-carboxamide]	0.15
O=C(NCc1cccnc1)c1ccc2cncc(-c3ccc(Cl)cc3)c2n1 [Example 45, 8-(4-Chlorophenyl)-N-(pyridin-3-ylmethyl)-1,6-naphthyridine-2-carboxamide]	0.02
NC(=O)c1ccc2cncc(-c3cccc(Cl)c3)c2n1 [Example 167, 8-(3-Chlorophenyl)-1,6-naphthyridine-2-carboxamide]	0.09
CC1(CNC(=O)c2ccc3cncc(-c4ccc(Cl)cc4)c3n2)CCC(=O)N1 (centres unmarked) [Example 62, 8-(4-Chlorophenyl)-N-((2-methyl-5-oxopyrrolidin-2-yl)methyl)-1,6-naphthyridine-2-carboxamide]	0.01
NC(=O)c1ccc2cncc(-c3ccccc3F)c2n1 [Example 79, 8-(2-Fluorophenyl)-1,6-naphthyridine-2-carboxamide]	0.03

Compound	EC (150% of control) [µM]
Cc1ccccc1-c1cncc2ccc(C(=O)NC(C)C(C)(C)O)nc12 (centres unmarked) [Example 176, N-(3-Hydroxy-3-methylbutan-2-yl)-8-o-tolyl-1,6-naphthyridine-2-carboxamide]	0.28
Cc1cc2cncc(-c3ccc(C(F)(F)F)cc3)c2nc1C(N)=O [Example 157, 3-Methyl-8-[4-(trifluoromethyl)phenyl]-1,6-naphthyridine-2-carboxamide]	0.88
CCCCCCNC(=O)Cc1ccc(-c2cncc3ccc(C(N)=O)nc23)cc1 [Example 150, 8-(4-(2-(Hexylamino)-2-oxoethyl)phenyl)-1,6-naphthyridine-2-carboxamide]	0.04
O=C(NCCO)c1ccc2cncc(-c3ccc(Cl)cc3)c2n1 [Example 158, 8-(4-Chlorophenyl)-N-(2-hydroxyethyl)-1,6-naphthyridine-2-carboxamide]	0.09
O=C(NCC(F)(F)F)c1ccc2cncc(-c3ccc(Cl)cc3)c2n1 [Example 63, 8-(4-Chlorophenyl)-N-(2,2,2-trifluoroethyl)-1,6-naphthyridine-2-carboxamide]	0.23
O=C(NCC(F)(F)F)c1ccc2cncc(-c3ccc(F)cc3F)c2n1 [Example 126, 8-(2,4-Difluorophenyl)-N-(2,2,2-trifluoroethyl)-1,6-naphthyridine-2-carboxamide]	0.06
NC(=O)c1ccc2cncc(N3CCOCC3)c2n1 [Example 142, 8-Morpholino-1,6-naphthyridine-2-carboxamide]	0.94
Cc1ccccc1-c1cncc2ccc(C(N)=O)nc12 [Example 82, 8-o-Tolyl-1,6-naphthyridine-2-carboxamide]	2.05
O=C(NCC(F)(F)F)c1ccc2cncc(-c3ccc(F)c(F)c3)c2n1 [Example 127, 8-(3,4-Difluorophenyl)-N-(2,2,2-trifluoroethyl)-1,6-naphthyridine-2-carboxamide]	0.23
O=C(NCc1ccccn1)c1ccc2cncc(-c3ccc(Cl)cc3)c2n1 [Example 46, 8-(4-Chlorophenyl)-N-(pyridin-2-ylmethyl)-1,6-naphthyridine-2-carboxamide]	0.51
COCCNC(=O)c1ccc2cncc(-c3cccc(OC)c3)c2n1 [Example 3, N-(2-Methoxyethyl)-8-(3-methoxyphenyl)-1,6-naphthyridine-2-carboxamide]	0.26
N#CC1(NC(=O)c2ccc3cncc(-c4ccc(Cl)cc4)c3n2)CC1 [Example 76, 8-(4-Chlorophenyl)-N-(1-cyanocyclopropyl)-1,6-naphthyridine-2-carboxamide]	1.84
O=C(NCC1CC1)c1ccc2cncc(-c3ccc(Cl)cc3)c2n1 [Example 67, 8-(4-Chlorophenyl)-N-(cyclopropylmethyl)-1,6-naphthyridine-2-carboxamide]	0.01
CCCCCCNC(=O)c1ccc(-c2cncc3ccc(C(N)=O)nc23)cc1 [Example 147, 8-(4-(Hexylcarbamoyl)phenyl)-1,6-naphthyridine-2-carboxamide]	0.09
CS(=O)(=O)c1cccc(CNC(=O)c2ccc3cncc(-c4ccc(Cl)cc4)c3n2)c1 [Example 51, 8-(4-Chlorophenyl)-N-(3-(methylsulfonyl)benzyl)-1,6-naphthyridine-2-carboxamide]	0.12

Same assay, conditions: Homo sapiens, Neural stem cell, 96 h; Table 2, known compounds; concentration at which 150% activity of control (100%) is reached; ATP levels (CellTiterGlo) after 4 days incubation

Compound	EC (150% of control) [µM]
O=C(NCc1ccccc1)c1ccc2cncc(-c3ccccc3)c2n1 [Example 191, 8-Phenyl-[1,6]naphthyridine-2-carboxylic acid benzylamide]	0.44
COc1ccccc1CNC(=O)c1ccc2cncc(-c3ccccc3)c2n1 [Example 194, 8-Phenyl-[1,6]naphthyridine-2-carboxylic acid 2-methoxy-benzylamide]	0.73
O=C(c1ccc2cncc(-c3ccccc3)c2n1)N1CCN(c2ccccn2)CC1 [Example 192, (8-Phenyl-[1,6]naphthyridin-2-yl)-(4-pyridin-2-yl-piperazin-1-yl)-methanone]	1.4
COc1ccc(-c2cncc3ccc(C(=O)NCc4cnc(C)cn4)nc23)cc1 [Example 180, 8-(4-Methoxy-phenyl)-[1,6]naphthyridine-2-carboxylic acid (5-methyl-pyrazin-2-ylmethyl)-amide]	1.26
O=C(NCc1ccccc1)c1ccc2cncc(-c3ccsc3)c2n1 [Example 199, 8-Thiophen-3-yl-[1,6]naphthyridine-2-carboxylic acid benzylamide]	0.1
O=C(NCCCN1CCOCC1)c1ccc2cncc(-c3ccccc3)c2n1 [Example 188, 8-Phenyl-[1,6]naphthyridine-2-carboxylic acid (3-morpholin-4-yl-propyl)-amide]	6.8
COc1ccc(-c2cncc3ccc(C(=O)NCCCn4ccnc4)nc23)cc1 [Example 179, 8-(4-Methoxy-phenyl)-[1,6]naphthyridine-2-carboxylic acid (3-imidazol-1-yl-propyl)-amide]	0.7

From patent US9657014B2, “Substituted 1,6-naphthyridines” (Hoffmann-La Roche Inc., priority 2012, dated 2017)
